In the experiment the test system is 379773-124-R-J2-PDC complex spheroids, viability % test/control. As to the kind of experiment: Anticancer human tumor 379773-124-R-J2-PDC patient-derived endometrial carcinoma cell line growth inhibition [CLK]. The note with it: for viability, T/C: stronger effect = lower value; for IC50: curve of compound. The text has this:
A high-throughput screen of multi-cell type tumor spheroids was designed to identify active combinations of […] and targeted small molecules. Complex spheroids include a stromal component modeled by human endothelial cells (HUVEC) and fibroblasts modeled by human mesenchymal stem cells (MSCs). The concentration ranges selected for each drug and investigational agent were based upon clinically achievable concentrations if the clinical Cmax of the agent was known.
Compounds. The drugs and investigational agents: cirtuvivint (SM08502; NSC835563), CC-671 (NSC850746), vemurafenib (NSC761431), tapotoclax (NSC804041), sotorasib (NSC818433), adagrasib (NSC831453), MRTX-1133 (NSC836407), BAY2416964 (NSC825713), copanlisib (NSC816437), inavolisib (NSC800729), abemaciclib (NSC768073), osimertinib (NSC779217), entinostat (NSC756642), eltanexor (KPT-8602, NSC794443), venetoclax (NSC766270), ceralasertib (NSC777638), bortezomib (NSC756655), olaparib (NSC753686), talazoparib (NSC767125), alisertib (NSC759677), peposertib (NSC802822), gemcitabine (NSC613327), 5-fluorouracil (NSC19893), SN-38 (NSC673596), oxaliplatin (NSC266046), paclitaxel (NSC125973), and doxorubicin (NSC123127), were obtained from the National Cancer Institute (NCI) Developmental Therapeutics Program Chemical Repository. The FDA-approved anticancer drug set is available from the Developmental Therapeutics Program at https://dtp.cancer.gov/organization/dscb/obtaining/available plates.htm. […] The stock solutions were prepared in dimethyl sulfoxide (DMSO, Sigma-Aldrich, St. Louis, MO, cat. D2650), except for the platinum complexes which were prepared in saline (Quality Biological, Gaithersburg, MD, cat. 114-055-101), at 800-fold the tested concentration and stored at -70 degrees C prior to their use. All drugs and investigational agents were tested over a range starting from a high concentration at or near the clinical Cmax and decreasing in half-log increments. If the clinical Cmax for an agent had not been determined, the highest concentration tested was 10 microM.
Cell Culture. All cells were maintained in an incubator at 37 degrees C and 5% CO2 with 95% humidity. The PDC lines were cultured according to standard operating procedures established by the NCI PDMR. Briefly, all PDCs were thawed and cultured in Matrigel-coated flasks prepared with a working solution of 1X Ham's F-12 nutrient mix, without supplementation (Invitrogen, Waltham, MA, cat. 11765054), 100 U/mL penicillin-streptomycin (Invitrogen, cat. 15140122), and 2.5% Matrigel (Corning Inc., Corning, NY, cat. 354248) for the first three passages. The 947758-054-R-J2-PDC line was cultured in 6B/Colon 1A media, which includes advanced DMEM/F-12 (Thermo Fisher Scientific, cat. 12634028), 10 mM HEPES (Thermo Fisher Scientific, cat. 15630080), 1X GlutaMAX supplement (Thermo Fisher Scientific, cat. 35050061), 0.1 mg/mL primocin (InvivoGen, cat. ant-pm-2), 10% defined fetal bovine serum, heat inactivated (HyClone Laboratories Inc., cat. SH30070.03HI), 1.25 mM N-Acetyl-L-cysteine (Sigma-Aldrich, cat. A9165), 10 mM nicotinamide (Sigma-Aldrich, cat. N0636), 1X B-27 supplement (Thermo Fisher Scientific, cat. 17504044), 1X N-2 supplement (Thermo Fisher Scientific, cat. 17502048), and 10 microM Y-27632 dihydrochloride (Tocris Bioscience, cat. 1254). The 876862-298-R-J1-PDC was cultured in 6E media, which includes all 6B/Colon 1A media components plus 50% L-WRN conditioned media (ATCC, cat. CRL-3276), 50 ng/mL recombinant human EGF recombinant protein (hEGF; Thermo Fisher Scientific, cat. PHG0311), 10 ng/mL recombinant human fibroblast growth factor 10 (hGFG-10; PeproTech, cat. 100-26), 1 ng/mL recombinant human fibroblast growth factor 2 (hFGF-2; PeproTech, cat. 100-18B), and 1 µM prostaglandin E2 (PGE2; Tocris, cat. 2296). The 227483-062-R1-J1-PDC line was cultured in Panc media, containing all 6E components except hFGF-2, with the addition of 500 nM SB-431542 (Selleckchem, cat. S1067) and 10 nM gastrin (Tocris, cat. 3006). […]

“And” between values parts separate entries of the source, which are not always exact repeats. Identical values can stand only once.
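Also: compound exposure lasted seven days before the viability readout.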
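For viability, T/C in this document: 100% = DMSO vehicle control wells.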

On to `CC(=O)O[C@H]1C(=O)[C@@]2(C)[C@H]([C@H](OC(=O)c3ccccc3)[C@]3(O)C[C@H](OC(=O)[C@H](O)[C@@H](NC(=O)c4ccccc4)c4ccccc4)C(C)=C1C3(C)C)[C@]1(OC(C)=O)CO[C@@H]1C[C@@H]2O`, for which the IC50 was less than 0.0316 µM. For the same compound, for the setting “compound 0.0316 µM”, the viability, T/C was 6.12% and 4.78%. In addition, under “compound 0.1 µM”, the viability, T/C is 5.31% and 6.44%. In addition, for the setting “compound 0.316 µM”, the viability, T/C was 6.35% and 7.02%. Further, where the note is “compound 1 µM”, the viability, T/C was 6.24% and 5.61%. In addition, the viability, T/C (compound 3.16 µM) is 4.99% and 3.42%. For the same compound, the viability, T/C (compound 10 µM) is 6.18% and 4.64%.
Consider `CC1(C)CCC(CN2CCN(c3ccc(C(=O)NS(=O)(=O)c4ccc(NCC5CCOCC5)c([N+](=O)[O-])c4)c(Oc4cnc5[nH]ccc5c4)c3)CC2)=C(c2ccc(Cl)cc2)C1`, for which the IC50 is 4.88 µM and 4.99 µM. Further, the viability, T/C (compound 0.0316 µM) is 89.8% and 83.7%. Besides, where the note is “compound 0.1 µM”, the viability, T/C is 92.6% and 89.4%. In addition, the viability, T/C (compound 0.316 µM) was 96.8% and 94%. For the same compound, under “compound 1 µM”, the viability, T/C is 96.9% and 111%. The viability, T/C (compound 3.16 µM) was 77.8% and 79.7%. Besides, for the setting “compound 10 µM”, the viability, T/C is 3.91% and 4.86%.
Regarding `CC1COCCN1c1cc(C2(S(C)(=N)=O)CC2)nc(-c2ccnc3[nH]ccc23)n1` (stereo not drawn), the IC50 was 2.7 µM and 2.87 µM. Moreover, under “compound 0.0316 µM”, the viability, T/C was 90.7% and 97.2%. For the same compound, the viability, T/C (compound 0.1 µM) was 80.4% and 89.4%. In addition, where the note is “compound 0.316 µM”, the viability, T/C is 70.8% and 87.9%. Besides, the viability, T/C (compound 1 µM) is 88.6% and 74.2%. Besides, the viability, T/C (compound 3.16 µM) was 44.8% and 47.4%. For the same compound, the viability, T/C (compound 10 µM) was 11.5% and 10.6%.
With `COc1ccc([C@@H](O)c2cc(-c3ncnc4cc(N5CCOCC5)ccc34)c(F)cc2Cl)nn1`, the IC50 was 5.67 µM and 6.25 µM. Moreover, the viability, T/C (compound 0.0316 µM) was 95.4% and 83.8%. Also, under “compound 0.1 µM”, the viability, T/C was 98.1% and 79.4%. The viability, T/C (compound 0.316 µM) is 81.3% and 79.2%. The viability, T/C (compound 1 µM) was 84.2% and 84.5%. In addition, the viability, T/C (compound 3.16 µM) was 68% and 79%. The viability, T/C (compound 10 µM) was 33.4% and 29.9%.
Turning to `COc1cccc2c1C(=O)c1c(O)c3c(c(O)c1C2=O)CC(O)(C(=O)CO)CC3OC1CC(N)C(O)C(C)O1` (stereo not drawn), the IC50 was 0.0345 µM and < 0.0316 µM. Besides, the viability, T/C (compound 0.0316 µM) was 53.6% and 49.6%. The viability, T/C (compound 0.1 µM) was 9.76% and 9.37%. Besides, the viability, T/C (compound 0.316 µM) was 7.51% and 5.56%. Further, the viability, T/C (compound 1 µM) was 3.51% and 3.77%. The viability, T/C (compound 3.16 µM) is 1.61% and 0.59%. Also, the viability, T/C (compound 10 µM) is 0.12% and 0.15%.
As for `Nc1ccccc1NC(=O)c1ccc(CNC(=O)OCc2cccnc2)cc1`, the IC50 was 3.02 µM and 2.86 µM. The viability, T/C (compound 0.0316 µM) was 108% and 92.4%. Besides, the viability, T/C (compound 0.1 µM) is 100% and 89.7%. Further, the viability, T/C (compound 0.316 µM) is 95.6% and 104%. Where the note is “compound 1 µM”, the viability, T/C was 102% and 96.7%. For the same compound, the viability, T/C (compound 3.16 µM) is 47.8% and 45.6%. Further, the viability, T/C (compound 10 µM) is 8.85% and 7.74%.
Turning to `Nc1ccn(C2OC(CO)C(O)C2(F)F)c(=O)n1` (stereo not drawn), the IC50 was less than 0.0316 µM. In addition, the viability, T/C (compound 0.0316 µM) is 6.4% and 4.58%. Further, the viability, T/C (compound 0.1 µM) is 5.3% and 4.24%. Also, under “compound 0.316 µM”, the viability, T/C is 6.69% and 3.96%. In addition, the viability, T/C (compound 1 µM) is 5.77% and 4.69%. For the same compound, the viability, T/C (compound 3.16 µM) was 4.84% and 3.97%. The viability, T/C (compound 10 µM) is 3.93% and 3.21%.
With `O=C(c1cc(Cc2n[nH]c(=O)c3ccccc23)ccc1F)N1CCN(C(=O)C2CC2)CC1`, the IC50 is more than 10 µM. The viability, T/C (compound 0.0316 µM) is 83.1% and 108%. The viability, T/C (compound 0.1 µM) is 89% and 86.6%. Also, the viability, T/C (compound 0.316 µM) is 89.2% and 84.2%. Further, where the note is “compound 1 µM”, the viability, T/C was 89.5% and 80.5%. For the same compound, the viability, T/C (compound 3.16 µM) was 81.5% and 78.6%. Besides, the viability, T/C (compound 10 µM) was 56.1% and 47%.
Turning to `O=c1[nH]cc(F)c(=O)[nH]1`, the IC50 was more than 10 µM. Besides, where the note is “compound 0.0316 µM”, the viability, T/C is 90.7% and 97.5%. The viability, T/C (compound 0.1 µM) is 107% and 93.2%. Further, the viability, T/C (compound 0.316 µM) was 91.5% and 98.6%. Also, under “compound 1 µM”, the viability, T/C was 97.5% and 100%. For the same compound, the viability, T/C (compound 3.16 µM) is 70.2% and 81.4%. Also, the viability, T/C (compound 10 µM) is 50.9% and 73.7%.

The viability, T/C is the ratio of treated to control. A word on the IC50: it is the midpoint of a concentration-inhibition curve.

The values are drawn from PubChem BioAssay AID2060604 (Molecular Pharmacology Branch, DTP, NCI, 2025).
